{
  "source": "patent US8198285B2",
  "about": "“Pyrazine derivatives” (Astrazeneca AB, priority 2010, dated 2012)",
  "key": {"[1]": {"system": "N-terminal propeptide of type I procollagen (P1NP)", "assay": "Bone biomarker evaluation: serum P1NP assay", "assay_type": "in vivo, rat", "conditions": "oral once a day, 7 consecutive days, female CRL:CD rats", "procedure": "For in vitro osteogenesis, human adipose-derived stem cells (hADSC) (Invitrogen, UK; catalogue number R7788-115) were seeded into 12-well plates at a density of 5000 cells/cm^2 and were cultured in a basal media of phenol red-free Dulbecco's Modified Eagles Medium (DMEM; Sigma-Aldrich, UK; catalogue number D1145) supplemented with 5% fetal bovine serum (FBS, Gibco, UK; catalogue number 10270) and 2 mM GlutaMax® (Gibco; catalogue number 35050). […] The formation of mineralized bone nodules was assessed during the time-course using Alizarin Red S staining. […] The amount of mineralisation was quantified through the extraction of the Alizarin Red S stain from bone nodules using a cetylpyridinium chloride extraction method, previously described (Gregory et al., Analytical Biochemistry, 2004, 329: 77-84; Hwang et al., Stem Cells and Development 17: 963-970, 2008). […] Following incubation, 200 μl aliquots were transferred to 96-well format and the absorbance at 550 nm was determined using a microplate spectrophotometer (SpectraMax Plus, Molecular Devices, USA). Data were expressed as mean absorbance at 550 nm±Standard error of mean (SEM). […] Data are shown as mean absorbance at 550 nm and analysed using one-way ANOVA followed by Tukey's multiple comparison post hoc test: n=9; ***, P<0.001. […]"}, "CYP3A4": {"biological_target": "T1, CYP3A4 (Homo sapiens, UniProt P08684)", "T1 construct": "purchased Cypex (Dundee, UK); host or cells: E. coli (membranes)", "T1 sequence (P08684 whole entry)": "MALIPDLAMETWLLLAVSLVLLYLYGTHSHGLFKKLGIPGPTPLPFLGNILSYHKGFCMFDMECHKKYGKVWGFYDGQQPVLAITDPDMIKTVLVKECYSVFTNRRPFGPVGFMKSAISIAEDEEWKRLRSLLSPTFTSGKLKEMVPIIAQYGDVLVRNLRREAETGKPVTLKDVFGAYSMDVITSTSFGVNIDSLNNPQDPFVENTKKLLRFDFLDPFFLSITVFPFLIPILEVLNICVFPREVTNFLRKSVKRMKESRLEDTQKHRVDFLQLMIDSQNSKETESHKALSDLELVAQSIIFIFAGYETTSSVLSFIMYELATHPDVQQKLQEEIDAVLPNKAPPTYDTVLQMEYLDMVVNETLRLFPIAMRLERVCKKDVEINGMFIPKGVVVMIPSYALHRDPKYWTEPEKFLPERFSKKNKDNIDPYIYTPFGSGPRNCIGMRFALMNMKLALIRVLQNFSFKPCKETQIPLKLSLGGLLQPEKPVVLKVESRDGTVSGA", "assay": "CYP3A4 inhibition (midazolam oxidation to 1'-hydroxymidazolam)", "assay_type": "in vitro ADME", "conditions": "E. coli expressed 3A4 membranes, midazolam 2.5 μM; read-out: IC50 CYP3A4 (estimated)", "procedure": "The ability of certain compounds to inhibit CYP3A4 in membranes was determined from the inhibition of midazolam oxidation to 1′-hydroxy midazolam. […] Employing an automated assay (full IC50) using the Automation Platform, up to thirteen compounds were run per plate as well as ketoconazole as a standard inhibitor of CYP3A4.\nThe incubations were carried out in 0.1 M phosphate buffer (pH 7.4 at 37° C.) containing DMSO (1%), midazolam (2.5 μM), phenacetin (25.7 μM), diclofenac (1.8 μM), S-mephenyloin (30.5 μM), bufuralol (8.8 μM), NADPH (1 mM), E. coli expressed 3A4 membranes (5 pmol/ml), 1A2 membranes (25 pmol/ml), 2C9 membranes (5 pmol/ml), 2C19 membranes (2.5 pmol/ml), 2D6 membranes (5 pmol/ml), and the test inhibitors ketoconazole, α-napthoflavone, sulphaphenazole, tranylcypromine and quinidine. […]\nThe assay was run on a robotic sample processor. […] The samples were centrifuged, transferred to a clean plate and analysed by LC MS/MS, which was conducted using an Applied Biosystems-Sciex API4000 mass spectrometer, with Agilent HP1100 binary solvent delivery pumps, and CTC HTS-PAL autosampler. […] The formation of product (1′-hydroxymidazolam) was monitored. […]\nRates of reaction were calculated for each reaction by measuring MS/MS area units. […]\nThe degree of inhibition of CYP3A4 was calculated and expressed as an IC50 value. […]"}, "PIM3": {"biological_target": "PIM3 (Homo sapiens, UniProt Q86V86)", "assay": "Inhibitory activity against PIM3", "assay_type": "biochemical"}},
  "note": "Structures can show the parent of a compound that is named as a salt.",
  "data": [
    {"smiles": "COCCCNCCCc1ccc(-c2cnc(N)c(C(=O)Nc3cccnc3)n2)cc1", "note": "[Example 1, 3-Amino-6-(4-{3-[(3-methoxypropyl)amino]propyl}phenyl)-N-pyridin-3-ylpyrazine-2-carboxamide tri-hydrochloride]", "values": [
      {"measurement": "Serum P1NP levels (marker of bone formation)", "setting": "[1]", "value": "increase in serum P1NP levels"},
      {"measurement": "IC50", "setting": "CYP3A4", "value": "> 50", "unit": "µM"},
      {"measurement": "Inhibitory activity against PIM3", "setting": "PIM3", "value": "inhibitory activity"}
    ]}
  ]
}
